Patent US7259004B1, “Endophytic streptomycetes from higher plants with biological activity” (Montana State University, priority 2002, dated 2007)

Tested on: M. tuberculosis MDR-P (drug resistant)
Assay: microbe, parasite or virus in culture
Format: cell-based, Mycobacterium tuberculosis
Settings: for IC50 M. tuberculosis MDR-P (drug resistant): 7H11 agar with 10% OADC

Compound	IC50 (Mycobacterium tuberculosis, read-out: IC50 M. tuberculosis MDR-P (drug resistant)) [µg/mL]	IC50 M. tuberculosis MDR-P (drug resistant) [micrograms/ml]
CO[C@H]1/C=C/O[C@@]2(C)Oc3c(C)c(O)c4c(O)c(c(/C=N/N5CCN(C)CC5)c(O)c4c3C2=O)NC(=O)/C(C)=C\C=C\[C@H](C)[C@H](O)[C@@H](C)[C@@H](O)[C@@H](C)[C@H](OC(C)=O)[C@@H]1C [Rifampicin, reference compound]	> 150	–
munumbicin B	–	10
munumbicin C	–	>125
